Assay [1] deals with delayed-type hypersensitivity to SRBC antigen. To be noted: intraperitoneal administration, mouse hind paws; cited from earlier work.
Assay [2] has as its system circulating cytokine levels. The experiment in a line: Circulating cytokine levels in SRBC-sensitized mice after intravenous SRBC challenge. The class given is in vivo. To be noted: serum, 80 mg/kg IP, 6 h after IV SRBC. How it is done:
Mice were injected subcutaneously with SRBC. After 5 days β-oxa-21:3n-3 (80 mg/kg) or vehicle (whole mouse serum) were injected intraperitoneally. 2 hours later SRBC were injected intravenously. The blood was collected from orbital plexus at 6 hours post intravenous SRBC injection. Serum was separated and frozen immediately at −70° C. The levels of cytokine were measured using BD mouse CBA kits using a BD Array instrument (BD, La Jolla, Calif.).
The insights from these cytokine studies prompted us to investigate whether injected β-oxa-21:3n-3 could regulate cytokine levels in vivo. The β-oxa-21:3n-3- or vehicle-administered pre-immune animals were challenged intravenously with SRBC; after 6 h the serum prepared from the mouse blood and cytokine levels measured.

The next assay deals with splenocytes. The experiment in a line: Ex-vivo antigen (SRBC)-dependent splenocyte proliferation after administration to SRBC-immunized mice (thymidine incorporation). The class given is in vivo, Balb/c mice. The method, then:
Mice were immunized with SRBC for 5 days. β-oxa-21:3n-3 was delivered in DMSO and injected intraperitoneally at the indicated doses. After 2 h spleens were removed and single cell suspensions were prepared. The splenocytes were cultured for 3 days in the presence (□), or absence (▪) of SRBC. Thymidine incorporation for final 16 hours of culture was determined. The data is expressed as mean±SEM of 3 separate experiments each in triplicate.
Mice were immunized with SRBC for 5 days. Then β-oxa-21:3n-3 dissolved in syngeneic mouse serum and injected intraperitoneally (A), intravenously (B) or gavaged/orally (C) at the indicated concentrations. After 2 h spleens were removed, single cell suspensions prepared and the splenocytes cultured for 3 days in the presence (▪), or absence (□) of SRBC. Thymidine incorporation for final 16 hours of culture was determined. The data is presented as the mean±SEM of 3 separate experiments separate experiments, each in quintuplets.
Mice were immunized with SRBC. After 5 days they were given β-thia-21:3n-3 at the indicated doses i.p. After 2 hours the spleens were removed and processed into single cell suppressions. These were then cultured in the presence (□), or absence of (▪) of SRBC to assess the proliferation. The results are expressed as mean±SEM of 3 experiments. (B) Effect of β-oxa-21:3n-3 on tetanus toxoid (TT)-induced ex vivo lymphocyte responses. Mice were immunized with TT subcutaneously and after 7 days were given β-oxa-21:3n-3 in mouse serum, intraperitoneally. Two hours later the spleen removed, single cell suspension prepared and examined for lymphoproliferation responses to TT in 5 day cultures. The results are expressed as mean±SEM of 3 experiments.
6-7 weeks old Balb/c mice were injected subcutaneously with 100 μl of 10% sheep red blood cells (IMVS, Inc., Adelaide, Australia) After 5 days 100 ul of β-oxa-21:3n-3 at indicated amounts were injected intraperitoneally, intravenously or gavaged orally. In another experimental set up mice were given β-tha-21:3n-3 i.p. In a third approach mice were infected subcutaneously with 100 μl of Tetanus Toxoid (2,500 Lf/ml). Then 7 days later were given β-oxa-21:3n-3. At indicated time points mice were sacrificed and spleens were removed. Single cell suspensions were prepared and white blood cells (WBC) were enriched by passing through Ficoll-Paque Plus (GE Healthcare). Cells were washed with RPMI-1640 containing 10% fetal bovine serum, 10 mM Hepes, antibiotics and glutamine (RPMI-10) and counted using an automated Cell-Dyne 3500R (Abbott, Inc. MA) instrument. Cells were viable (>98%) as judged by trypan blue exclusion. (β-oxa-21:3n-3)- or vehicle-treated mouse samples (200,000/well) were mixed either with SRBC (600,000/well) with 100 μl of Tetanus toxoid (50 Lf/ml) or phytohaemaglutinin (PHA) (2 μg/ml) or with PHA plus phorbol myristate acetate (PMA) (10 ng/ml) or with PMA plus calcium ionophore A23187 ([…]). Cells were cultured in 96 well U bottom plates (Nunc, Inc. Denmark) for 3 days (except for TT −5 days) at 37° C. under humidified air containing 5% CO2. At some instances 50 μl of supernatants were transferred to a new plate and frozen immediately at −70° C. to be used for cytokine measurements. Thymidine (50 μl, 1 μCi/well) was added at final 16 hours of culture. Cells were harvested and thymidine incorporation was determined using a beta scintillation counter.
(Uptake of a labelled nucleoside into DNA is a usual measure of proliferation.)

The test system of assay [3] is splenic T cells and MHC class II cells. The experiment in a line: Co-culture of enriched splenic T cells and MHC class II cells, SRBC-induced proliferation. The format is in vivo, mice. Particulars: 80 mg/kg IP, 3 days. How it is done:
(A) β-oxa-21:3n-3 (80 mg/kg) or vehicle was injected once intraperitoneally to 5 days SRBC-sensitized mice. After the indicated time period spleens were removed and cell suspensions were incubated in the presence or absence of SRBC for 3 days. Thymidine incorporation for final 16 hours of culture was determined. Percent inhibition of proliferation by β-oxa-21:3n-3 compared to vehicle injected animals are depicted against duration of exposure. (B) β-oxa-21:3n-3 (80 mg/kg) or vehicle was injected once intraperitoneally to 5 days SRBC-sensitized mice. After two hours spleens were removed and T cell and MHC II positive cells were enriched using MACS magnetic beads. As indicated, vehicle and β-oxa-21:3n-3 injected animal's enriched cells were then co-cultured in the presence or absence of SRBC for 3 days. Thymidine incorporation for final 16 h of culture was determined. Splenocytes proliferation is plotted versus the type of co-cultured cells.
In co-culture experiments negative selection purification systems were utilized to ensure isolation of untouched cells to avoid side effects on cell viability and activity. […] For accuracy in cell counts and cell viability, the enriched cells were also inspected by hemocytometer and then counted using Cell-Dyne 3500R (ABBOTT, Inc. MA) and then co-cultured. […]

In assay [4] the test system is Th1, Th2 and macrophage-related cytokines. The assay is described as follows: Ex vivo cytokine production by antigen (SRBC)-stimulated splenocytes. The class given is in vivo, mice. To be noted: splenocytes cultured 3 days with SRBC, IP dosing.

With `CC/C=C\C/C=C\C/C=C\CCCCCCCCOCC(=O)O` [β-oxa-21:3n-3], the “delayed-type hypersensitivity to SRBC antigen” value in assay [1] was “inhibition”. Further, in assay [2], the IFNγ conc was found to be 229 ± 40 pg/mL, the IL-2 conc was found to be 73 ± 10 pg/mL, the IL-4 conc came to 3.5 ± 2 pg/mL and the IL-5 conc was determined as 120 ± 21 pg/mL. Further, in assay [2], the IL-6 conc worked out at 35 ± 8 pg/mL, the IL-10 conc amounted to 9 ± 5 pg/mL, the IL-12 conc came out at 320 ± 145 pg/mL and the IL-13 conc was found to be 0 ± 0 pg/mL. Further, in assay [2], the KC conc was determined as 61 ± 21 pg/mL, the MCP-1 conc is 2039 ± 457 pg/mL and the TNFα conc was 15 ± 3 pg/mL. The “inhibition of splenocyte proliferation, duration of effect” value in the assay with splenocytes (ex-vivo SRBC challenge 1, 2 and 6 days after single administration (80 mg/kg IP)) is listed as “significant inhibition”. The antigen-dependent splenocyte proliferation result in the assay on splenocytes (intravenous, in syngeneic mouse serum, compared with IP) is given as “even more pronounced”. For the same compound, the “antigen-dependent proliferation of splenocytes” value in the assay on splenocytes (orally administered (gavage), in mouse serum) is recorded as “significantly depressed”. Moreover, in the assay with splenocytes (single IP injection in 7% DMSO, 2 h, SRBC pre-sensitized mice), the “antigen-dependent proliferation of splenic lymphocytes, ex-vivo” value is “dose-dependent inhibition”. For the same compound, in assay [3], the “splenocyte proliferation, MHC class II cells from treated animals co-cultured with T cells from either treated or vehicle animals” value was “no suppression” and the “splenocyte proliferation, T cells from treated animals co-cultured with MHC class II cells from treated or vehicle animals” value is “suppressed”. In assay [4], the “antigen-induced macrophage cytokine levels (MCP-1, KC, IL-12)” value is “no significant effects”; the “antigen-stimulated Th1 cytokines (IL-2, IL-6, IFNγ and TNFα)” value is recorded as “concentration-dependent reduction”; the “antigen-stimulated Th2 cytokines (IL-4, IL-5, IL-10 and IL-13)” value is reported as “concentration-dependent reduction”.
